As usually defined, the IC50 is the concentration that gives 50% inhibition. A word on the IC90: it is the point of the concentration-response curve where the effect stands at 90%.

The source made the active and inactive calls. The rule behind the calls is not given here.

Consider 17 compounds from PubChem BioAssay AID434987 (Southern Research Specialized Biocontainment Screening …, 2010).

The test system of this assay is M. tuberculosis H37Rv growth inhibition with meropenem. Put plainly: dose response, H37Rv, with and without meropenem (AID 434987).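 Note: growth over 7 days at 37 °C before Alamar Blue read on day 9.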
The mark [1] stands for this setting: M. tuberculosis H37Rv growth inhibition, measured here: IC50 without meropenem.
[2] abbreviates: M. tuberculosis H37Rv growth inhibition, measured here: IC90 without meropenem.
The mark [3] stands for this setting: measured here: IC90 with meropenem.

As to `O=C(C1=C[C@@H](c2ccc(Br)cc2)C[C@@H](OCc2ccc(CO)cc2)O1)N1CCN(Cc2ccc3c(c2)OCO3)CC1`, the IC50 is 79.3 µM (inactive). The compound further returned an IC50 under setting [1] of over 100 µM. Further, under setting [2], the IC90 is over 100 µM. The compound further yielded a concentration for an effect of 90% (IC90) under setting [3] of over 100 µM.
For `O=C(NCC(c1ccco1)N1CCc2ccccc21)c1ccc([N+](=O)[O-])cc1` (stereo not drawn), the IC50 is > 100 µM (inactive). For the same compound, under setting [1], the half-inhibitory concentration (IC50) was over 100 µM. This compound also showed an IC90 under setting [2] of over 100 µM. For the same compound, the IC90 under setting [3] was over 100 µM.
Take `CCOC(=O)CSc1nnc(NC(=O)c2cccc(S(=O)(=O)N3CCCCC3)c2)s1`: the IC50 is 23.8 µM (inactive). For the same compound, under setting [1], the IC50 stood at 41 µM. Under setting [2], the IC90 was over 100 µM. This compound also gave a 90% effect concentration (IC90) under setting [3] of over 100 µM.
As for `BrC(=C\c1ccccc1)/C=N/N1CCN(c2ccccn2)CC1`, the IC50 was > 100 µM (inactive). For the same compound, the IC50 under setting [1] is over 100 µM. The compound further showed a 90% effect concentration (IC90) under setting [2] of over 100 µM. Further, the IC90 under setting [3] is over 100 µM.
For `O=C(CCSc1ccccc1)Nc1nc2c(s1)CCCC2`, the IC50 was > 100 µM (inactive). Under setting [1], this compound returned an IC50 of over 100 µM. Besides, the IC90 under setting [2] is over 100 µM. This compound also registered an IC90 under setting [3] of over 100 µM.
Regarding `COc1ccc(OC)c(Nc2nc(-c3cccs3)cs2)c1`, the IC50 was 42.8 µM (inactive). Also, under setting [1], the IC50 amounted to 49 µM. The compound also returned an IC90 under setting [2] of over 100 µM. Under setting [3], this compound returned a concentration for an effect of 90% (IC90) of over 100 µM.
With `O=C(COc1ccccc1)Nc1cc(C(F)(F)F)ccc1N1CCCC1`, the IC50 is 46.6 µM (inactive). Besides, under setting [1], the IC50 was over 100 µM. This compound also returned an IC90 under setting [2] of over 100 µM. Besides, the IC90 under setting [3] is over 100 µM.
`O=C(Nc1ccc(Cl)cc1Cl)C1=Cc2ccccc2OC1`: the IC50 is > 100 µM (inactive). Under setting [1], this compound showed an IC50 of over 100 µM. Under setting [2], the IC90 is over 100 µM. The IC90 under setting [3] was over 100 µM.
Consider `C=CCSc1nnc(-c2cc3c(-c4ccccc4)nn(C)c3s2)n1C`, for which the IC50 was 26 µM (inactive). The IC50 under setting [1] stood at 52.4 µM. Further, under setting [2], the IC90 amounted to 92 µM. This compound also gave an IC90 under setting [3] of over 100 µM.
Consider `COc1ccc(-c2csc(-c3cccs3)n2)c(OC)c1`, for which the IC50 is 67.6 µM (inactive). The same compound showed an IC50 under setting [1] of 68.2 µM. Also, the IC90 under setting [2] was over 100 µM. The compound further had an IC90 under setting [3] of over 100 µM.
With `CC1=NN(c2ccccc2)C(=O)C1C=Nc1ccccc1O` (stereo not drawn), the IC50 is > 100 µM (inactive). Moreover, under setting [1], the concentration for half-maximal inhibition (IC50) was over 100 µM. The compound further returned an IC90 under setting [2] of over 100 µM. This compound also gave an IC90 under setting [3] of over 100 µM.
As to `COc1ccc(C2c3c(C)nn(-c4ccccc4)c3NC(=O)N2c2ccccc2)cc1` (stereo not drawn), the IC50 is 17.4 µM. The compound further registered an IC50 under setting [1] of over 100 µM. The compound also showed an IC90 under setting [2] of over 100 µM. Also, under setting [3], the concentration for an effect of 90% (IC90) is over 100 µM.
As to `C(=N\n1cnnc1)/c1ccc(-c2ccccc2)cc1`, the IC50 was > 100 µM (inactive). Moreover, under setting [1], the IC50 was over 100 µM. Under setting [2], this compound had an IC90 of over 100 µM. Besides, the 90% effect concentration (IC90) under setting [3] was over 100 µM.
`CCn1cc(C(=O)O)c(=O)c2cc(F)c(N/N=C/c3ccccc3)cc21`: the IC50 was 22.8 µM (inactive). This compound returned an IC50 under setting [1] of 36.5 µM. Moreover, under setting [2], the IC90 was over 100 µM. Further, under setting [3], the IC90 is over 100 µM.
In the case of `N#Cc1c(C(F)(F)F)cc(-c2ccccc2)nc1SCc1nc(N)nc(N2CCOCC2)n1`, the IC50 was > 100 µM (inactive). Further, under setting [1], the IC50 is over 100 µM. The compound further registered an IC90 under setting [2] of over 100 µM. The IC90 under setting [3] is over 100 µM.
With `COC(=O)/C(=C\Nc1ccc(Cl)cc1Cl)NC(=O)c1ccc(Cl)cc1Cl`, the IC50 is > 100 µM (inactive). Under setting [1], this compound gave an IC50 of over 100 µM. This compound returned an IC90 under setting [2] of over 100 µM. This compound showed an IC90 under setting [3] of over 100 µM.
Take `COc1cc2c(=O)n(Cc3ccco3)c(=O)n(CC(=O)c3cccc(Br)c3)c2cc1OC`: the IC50 is > 100 µM (inactive). Under setting [1], this compound displayed a half-inhibitory concentration (IC50) of over 100 µM. The IC90 under setting [2] is over 100 µM. The same compound had an IC90 under setting [3] of over 100 µM.
